Several values for one entry are separate records, joined by “and”; a condition that tells them apart may be missing. Equal entries are not always repeated. Where two headings read alike, the source gives them in different places.
Tests used:
[1] = test system: Human Multiple Myeloma Cells (MM.1S); experiment: Antiproliferative activity on MM.1S in the presence of beta adrenergic receptor antagonist (CGP 12177A or ICI 118,551); type: cell-based
[2] = test system: Human Multiple Myeloma Cells (EJM); experiment: Anti-proliferation assay (ATPLite, 72 hours), EJM; details: for Antiproliferative Activity: DEX μM r7-r15: 2.03, 0.675, 0.225, 0.075, 0.025, 0.00834, 0.00278, 0.00093, 0
[3] = test system: Human Multiple Myeloma Cells (MM.1S); experiment: Anti-proliferation assay (ATPLite, 72 hours), MM.1S; details: Homo sapiens, MM1.S
[4] = test system: Human Multiple Myeloma Cells (ANBL-6); experiment: Anti-proliferation assay (ATPLite, 72 hours), ANBL-6
MM.1S cells = experiment: Annexin V / propidium iodide apoptosis assay, MM.1S; type: cell-based, human; details: 72 hours (FIG. 2)
Protocol: Effects on cell viability were determined by measuring the percent of cells that were annexin V positive (an early marker for apoptosis) and by measuring the percent of cells propidium iodide (PI) positive, an indicator that cellular membranes are compromised and a marker of cell death.

[5] = Homo sapiens, Multiple myeloma cell, 72 h, read-out: percent inhibition of cell proliferation
[6] = 72 h, read-out: percent inhibition of cell proliferation
[7] = read-out: percent inhibition of cell proliferation
[8] = Homo sapiens, ANBL-6, read-out: percent inhibition of cell proliferation
[9] = Homo sapiens, ANBL-6, 72 h, read-out: percent inhibition (% I)
[10] = 72 h, read-out: percent inhibition (% I)
[11] = read-out: Antiproliferative Activity (inhibition of proliferation)

## Cc1ccc(OCC(O)C(C)NC(C)C)c2c1CCC2 (stereo not drawn) [ICI, 118,551]
[1]; in the presence of […] ICI, 118,551, Dobutamine 0 μM, Dexamethasone (μM) by row: r8 0.15, r9 0.076, r10 0.038, r11 0.019, r12 0.0095, r13 0 (ICI alone)
  percent inhibition of cell proliferation: 1.9%

## CC(CCc1ccc(O)cc1)NCCc1ccc(O)c(O)c1 (stereo not drawn) [Dobutamine, dobutamine]
[2]; [5]
  inhibition at 0.0316 µM: -2.3%
  inhibition at 0.506 µM: 21.5%
[3]; [6]
  inhibition at 0.0316 µM: -2.04%
  inhibition at 0.506 µM: 22.9%
[3]; [7]
  inhibition at 1 µM: 28%
[1]; Homo sapiens, MM1.S, in the presence of 0.91 μM ICI, 118,551, Dobutamine 0.063 μM, Dexamethasone (μM) by row: r8 0.15, r9 0.076, r10 0.038, r11 0.019, r12 0.0095, r13 0, read-out: percent inhibition of cell proliferation
  inhibition at […]: 2.2%
[1]; Homo sapiens, MM1.S, in the presence of 0.91 μM ICI, 118,551, Dobutamine 0.13 μM, Dexamethasone (μM) by row: r8 0.15, r9 0.076, r10 0.038, r11 0.019, r12 0.0095, r13 0, read-out: percent inhibition of cell proliferation
  inhibition at […]: 2%
[1]; Homo sapiens, MM1.S, in the presence of 0.91 μM ICI, 118,551, Dobutamine 0.25 μM, Dexamethasone (μM) by row: r8 0.15, r9 0.076, r10 0.038, r11 0.019, r12 0.0095, r13 0, read-out: percent inhibition of cell proliferation
  inhibition at […]: -5.4%
[1]; Homo sapiens, MM1.S, in the presence of 0.91 μM ICI, 118,551, Dobutamine 0.51 μM, Dexamethasone (μM) by row: r8 0.15, r9 0.076, r10 0.038, r11 0.019, r12 0.0095, r13 0, read-out: percent inhibition of cell proliferation
  inhibition at […]: -2.8%
[1]; Homo sapiens, MM1.S, in the presence of 0.91 μM ICI, 118,551, Dobutamine 1.0 μM, Dexamethasone (μM) by row: r8 0.15, r9 0.076, r10 0.038, r11 0.019, r12 0.0095, r13 0, read-out: percent inhibition of cell proliferation
  inhibition at 1 µM: -1.8%

## CC(C)(C)NCC(O)c1cc(Cl)c(N)c(Cl)c1 (stereo not drawn) [Clenbuterol]
[3]; [7]
  inhibition at 0.0006 µM: 66%
  inhibition at 0.01 µM: 78%
  inhibition at […]: 61% and 62% and 57%

## COc1cc2c(cc1OC)-c1cc(=Nc3c(C)cc(C)cc3C)n(C)c(=O)n1CC2 [trequinsin, 2,3,6,7-tetrahydro-9,10-dimethoxy-3-methyl-2-((2,4,6-trimethylphenyl)imino)-4H-pyrimido(6,1-a)isoquinolin-4-one]
[4]; [8]
  inhibition at 0.00464 µM: 2.91%
  inhibition at 0.125 µM: 4.39%
  inhibition at 0.375 µM: 7.82%
MM.1S cells; 2 μM trequinsin
  induction of MM.1S cell apoptosis: negligible effects

## COc1ccc(CC(C)NCC(O)c2ccc(O)c(NC=O)c2)cc1 (stereo not drawn) [formoterol]
[4]; [9]
  inhibition at 2.53 pM: 23.3%
  inhibition at 5.06 pM: 26.7%
  inhibition at 10.1 pM: 30%
  inhibition at 20.2 pM: 39.9%
  inhibition at 40.5 pM: 48.8%
  inhibition at 81 pM: 55.4%
[3]; [10]
  inhibition at 2.53 pM: 18.9%
  inhibition at 5.06 pM: 23.8%
  inhibition at 10.1 pM: 40.8%
  inhibition at 20.2 pM: 52.7%
  inhibition at 40.5 pM: 54.7%
  inhibition at 81 pM: 65.9%
[3]; [11]
  inhibition at 2.53 pM: 22.4%
  inhibition at 5.06 pM: 36.2%
  inhibition at 10.1 pM: 40.7%
  inhibition at 20.2 pM: 51%
  inhibition at 40.5 pM: 57.5%
  inhibition at 81 pM: 65.7%
[3]; read-out: inhibition of proliferation, single agent
  inhibition at 20.2 pM: 51%

## Nc1cccc2c1CN(C1CCC(=O)NC1=O)C2=O (stereo not drawn) [lenalidomide]
[4]; Salmeterol 0 μM (LEN alone), LEN μM r7-r15: 4.04, 2.02, 1.01, 0.505, 0.253, 0.126, 0.0632, 0.0316, 0
  Antiproliferative Activity: 53.5 and 51.8 and 52.5 and 44.8 and 34.3 and 61.9 and 52.8 and 54.3
MM.1S cells; 1 μM lenalidomide
  induction of MM.1S cell apoptosis: negligible effects

## CCC(NC(C)C)C(O)c1ccc(O)c(O)c1 (stereo not drawn) [Isoetharine]
[2]; Isoetharine 0.000158 μM
  Antiproliferative Activity: 7.35
[2]; Isoetharine 0.000316 μM
  Antiproliferative Activity: 7.35
[2]; Isoetharine 0.00506 μM
  Antiproliferative Activity: 29
